Experimental findings from patent publication US20230097253A1, “NOVEL QUINAZOLINE COMPOUND AS THERAPEUTIC AGENT FOR METABOLIC DISORDERS” (BIOWAY., INC, priority 2020, published 2023) are described below.

Assay [1] deals with steatosis-induced Huh7 cells. The assay can be described thus: Quantitative analysis of mRNA of lipogenesis-related factors (qRT-PCR). The note with it: 250 μM PA, 0.5 μM, 24 hours, compared to the control group, FIG. 9-B. The format is cell-based. The protocol: To induce steatosis in Huh-7 cells in each well except for control cells, the Huh-7 cells were treated with PA bound to 2% BSA at a concentration of 250 μM except for the control, and the control cells were pretreated with 2% BSA without FA.
The cells in each well were treated with the compound of Chemical Formula 2 according to the present invention 0.5 μM and then cultured for 24 hours. The control cells and PA treated cells were treated with DMSO. All media were aspirated and the cells were gently washed 3 times with cold PBS.
Additionally, the total RNA was extracted using the RNeasy RNA isolation kit (Qiagen, Hilden, Germany).
Additionally, 10 μL of […] per mL of a cell lysis solution was additionally prepared.
Additionally, the cells were washed twice with cold PBS and 350 μL of RNA lysis buffer was added thereto.
Additionally, 70% EtOH was added to the lysate in an equal volume, mixed by pipetting, transferred to a spin column, and centrifuged at 8,000×g for 15 seconds.
Additionally, the flow-through solution was removed and 700 μL of a wash solution was added to the spin column, centrifuged at 8,000×g, and the flow-through solution was removed. […]
Additionally, RNA concentration was measured at OD 260 nm using the Nanophotometer N60 (Implen, Munich, Germany) […]
In general terms: Real-time PCR tracks product formation cycle by cycle.

The subject of assay [2] is DIAMOND™ mouse model. The assay can be described thus: Efficacy in improving liver fibrosis (Sirius Red and Trichrome staining of liver tissue). The format is in vivo. The note with it: DIAMOND mice liver tissue, 16 mg/kg oral once daily for 8 weeks, compared to control group (VC). As to the method: (§1) The DIAMOND™ mouse model, an animal model prepared using a Western diet and sugar water, was used. The DIAMOND™ mice were induced with WDSW for 14 weeks, and 12 mice were used for the control group and 12 mice for the BW-3290 treatment group, and BW-3290 was orally administered at 16 mg/kg once daily for 8 weeks. An autopsy was performed at week 22, and blood collection and tissue storage were performed for the individuals in each group.
Staining was performed by Sirius Red staining and Trichrome (Masson's trichrome) staining, which are the staining methods that can confirm fibrosis, was stained using the liver tissue obtained after autopsy.

The subject of assay [3] is DIAMOND™ mouse model. The assay can be described thus: Insulin resistance test. In kind it is in vivo. The following applies: insulin 0.75 UU/kg intraperitoneally after 6 hours fasting; at 0 and 90 minutes, statistical significance vs control group (VC); FIG. 20. The protocol: as §1
The insulin resistance test was performed one week before autopsy, and the subject was fasted for 6 hours.
Insulin was injected intraperitoneally at a concentration of 0.75 UU/kg, and the blood was collected 15 minutes, 30 minutes, 45 minutes, and 90 minutes after the injection, and the blood glucose levels were measured using the OneTouch Plus Ultra Glucometer and glucose scores were evaluated therefrom.

In the case of `CC(C)C(Nc1ncnc2nc[nH]c12)c1nc2cccc(Cl)c2c(=O)n1-c1ccccc1` (centres unmarked) [BW-3290, 2-(1-((7H-purin-6-yl)amino)-2-methylpropyl)-5-chloro-3-phenylquinazolin-4(3H)-one], in assay [1], the “gene expression (mRNA) of FAS” value was “reduced” and the “gene expression (mRNA) of SREBP-1c” value is “reduced”. Besides, the “fiberized portions stained in blue by Trichrome staining” value with DIAMOND™ mouse model [2] is given as “reduced”. Also, in the assay on DIAMOND™ mouse model [2] (FIGS. 19 and 22), the “collagen and amyloid tissues stained in red by Sirius Red staining” value is reported as “decreased”. For the same molecule, the glucose score entry in the assay on DIAMOND™ mouse model [3] is reported as “decreased”.
